Publication PMC4917822, “pH-Selective Cytotoxicity of pHLIP-Antimicrobial Peptide Conjugates” (Scientific Reports, 2016)
Bridges are numbered along the chain shown (N, C = ends). Roman numbers before positions name the chains, in order. Where no end group is shown, it is not given here.

Key:
MDA-MB-231 cells [1] = assay: Annexin V-Alexa Fluor 488 / MitoTracker Red dual staining by flow cytometry; type: cell-based, Human; conditions: for PS externalization (Annexin V) and loss of mitochondrial membrane potential (MitoTracker Red) at low pH / Annexin V / MitoTracker Red effects 6 hours post-treatment: 10 μM; for PS externalization (Annexin V) and loss of mitochondrial membrane potential (MitoTracker Red) at low pH: 2 h at pH 5.0, 24 h recovery, n = 3; for Annexin V / MitoTracker Red effects 6 hours post-treatment: 2 h at pH 7.4 or 5.0, 6 h recovery, n = 3 (Figure S3)
MDA-MB-231 cells [2] = assay: Lactate dehydrogenase (LDH) release assay; type: cell-based, Human; conditions: 10 μM free peptide, 2 h at pH 5.0
Source text: (§1) First, we assessed the effect of the conjugates on the integrity of cell membranes based on the uptake of Trypan Blue, which can be taken up by cells only if their plasma membrane is disrupted. […] We also measured the release of the intracellular enzyme lactate dehydrogenase (LDH) after peptide treatment, as another method to evaluate plasma membrane damage. […] Importantly, it was previously shown that neither pHLIP alone nor low pH treatments disrupts membranes, including that of MDA-MB-231 cells[20][23] (Figure S1).
(§2) Figure 4 Effect of free peptides and pHLIP-conjugates on Plasma Membrane Integrity and Lactate Dehydrogenase (LDH) Release. (A) The integrity of the plasma membrane is assessed by the uptake of trypan blue dye. […] Cells were detached and counted based on trypan blue uptake with an hemacytometer: % of intact cells corresponds to the number of cells not showing any dye uptake over the total number of cells. […] Cell media supernatant was monitored for the presence of LDH following treatment. […]
For the Trypan Blue plasma membrane integrity assays cells were seeded in 96-well plates at a density of 3,000 cells/well and incubated until confluent (~72 hours). […] After treatment, the media was removed, cells were detached using trypsin and counted based on trypan blue uptake using an hemacytometer. […] Percent LDH release was calculated against control cells treated with media at physiologic pH.

[3] = tested on: MDA-MB-231 breast cancer cells; assay: Anti-proliferation assay (MTT) after 2 h treatment at pH 7.4 or 5.0; type: cell-based, Human; conditions: for enhancement of cytotoxicity of free peptide at low pH: pH 5.0, 10 μM; for enhancement of cytotoxicity of free peptide at low pH / cytotoxicity of free peptide at physiological pH: n = 9; for cytotoxicity of free peptide at physiological pH: pH 7.4, 72 h recovery
Method: We have previously shown that this treatment protocol and pHLIP alone have no effect on MDA-MB-231 cell viability.
Figure 2 Inhibition of cell growth. MDA-MB-231 cells treated with 4-amino acid pHLIP-KLAKS conjugates. Black columns represent cells treated at pH 7.4 and cells treated at low pH are shown in grey. For each condition, 3,000 cells/well (96-well plate) were seeded, allowed to adhere overnight, treated for 2 hours, washed once with media and cultured for 72 hour in complete medium at physiologic pH. Cell viability was assessed with the MTT assay. All measurements were normalized to the media control (0 μM, pH 7.4), as 100% cell viability. Results are shown as mean ± SEM (n = 9–12).
For each condition, 3,000 cells/well (96-well plate) were seeded, allowed to adhere overnight, treated for 2 hours, washed once with media and cultured for 72 hour in complete medium at physiologic pH. Cell viability was assessed with the MTT assay. All measurements were normalized to the media control (0 μM, pH 7.4), as 100% cell viability. Results are shown as mean ± SEM (n = 9–12). Data at pH 5.0 (A and B) were fitted with a sigmoidal dose-response using Prism 6 for Macintosh (GraphPad, Inc).
Figure 5 Effect of free peptides on cell viability. MDA-MB-231 cells were treated with 10 μM of either (KLAKLAK)2 (A) or KLAKLAK (B) at pH 7.4 (black circles) or pH 5.0 (grey squares) for 2 hours, washed once with media and cultured for 72 hours in complete medium at physiologic pH. Cell viability was assessed with the MTT assay, and all measurements were normalized to the media control (0 μM, pH 7.4), as 100% cell viability. Results are shown as mean ± SEM (n = 9).
Cells were seeded in 96-well plates at a density of 3,000 cells/well and incubated overnight. […] Treatment solutions were collected and their pH values measured using a micro-combination pH probe (Microelectrodes, Inc.). […] Cell viability was determined after 72 hours using the colorimetric MTT assay. Briefly, 10 μL of a 5 mg/mL MTT stock solution was added to the treated cells and incubated for 2 hours at 37 °C. The resulting formazan crystals were solubilized in 200 μL DMSO and the absorbance measured at 580 nm using an Infinite 200 PRO microplate reader (Tecan). Cell viability was calculated against control cells treated with media at physiologic pH. When needed, data were fitted with a sigmoidal dose-response using Prism 5 for Macintosh (GraphPad, Inc). […]
Figure S1. Effect of Free Peptides on Cell Viability and Plasma Membrane Integrity. For each condition, 3,000 cells/well (96-well plate) were seeded, incubated until confluent (~72 hours) and treated for 2 hours with 10 µM of free pHLIP(WT) or free tetrapeptides at pH 7.4 (black bars) and a low pH (grey bars). (A) Cell viability assay. After the 2-hour treatment, cells were washed once with media and cultured for 72 hour in complete medium at physiologic pH. Cell viability was assessed with the MTT assay. All measurements were normalized to the media control (0 µM, pH 7.4), as 100% cell viability. Results are shown as mean ± SEM (n=9-12). (B) After the 2-hour treatment, cells were detached and counted based on trypan blue uptake with an hemacytometer: % of intact cells corresponds to the number of cells not showing any dye uptake over the total number of cells. Results are shown as mean ± SD (n=3).

caspases 3 and 7 = conditions: MDA-MB-231; 10 μM; 2 h at pH 7.4 or 5.0; monitored at 24, 48 and 72 hours; fluorescence 485/530 nm; n = 3 (Figure S5)
Method: Before treatment, construct aliquots were solubilized in an appropriate volume of DMEM without FBS (pH 7.4) so that upon pH adjustment 10 μM is obtained. […]

[4] = tested on: MDA-MB-231 breast cancer cells; conditions: cited from earlier work
MDA-MB-231 cells [5] = assay: Trypan Blue plasma membrane integrity assay; type: cell-based, Human; conditions: 10 μM, 2 h at pH 7.4 or pH 5.0, % intact cells counted with hemacytometer, mean ± SD, n = 3
Source text: as §1, §2
For the Trypan Blue plasma membrane integrity assays cells were seeded in 96-well plates at a density of 3,000 cells/well and incubated until confluent (~72 hours). […] After treatment, the media was removed, cells were detached using trypsin and counted based on trypan blue uptake using an hemacytometer. […] Percent LDH release was calculated against control cells treated with media at physiologic pH. […]

Row | Molecule | PS externalization (Annexin V) and loss of mitochondrial membrane potential (MitoTracker Red) at low pH (MDA-MB-231 cells [1]) | Annexin V / MitoTracker Red effects 6 hours post-treatment (MDA-MB-231 cells [1]) | LDH release 24 hours post-treatment at low pH (MDA-MB-231 cells [2]) | enhancement of cytotoxicity of free peptide at low pH ([3]; 72 h recovery) | cytotoxicity of free peptide at physiological pH [3] | other results
1 | CN[C@@H]1C[C@H]2O[C@@](C)([C@@H]1OC)n1c3ccccc3c3c4c(c5c6ccccc6n2c5c31)C(=O)NC4 [staurosporine, reference compound] | – | – | – | – | – | Annexin V / MitoTracker Red population shift (positive control) (MDA-MB-231 cells [1]; 1 μM for 6 or 24 hours, n = 3 (Figure S4)): clear shift in cell population
2 | CKLAKLAK | only a modest one | no evidence of these effects | some LDH release | only a modest one | not significantly toxic | caspase 3/7 activation (caspases 3 and 7): neither treatments with pHLIP-KLAKLAK or KLAKLAK induces any significant caspase activation
3 | CKLAKLAKKLAKLAK [(KLAKLAK)2, cationic antimicrobial peptide cargo, synthesized with N-terminal Cys, amidated C-terminus] | largest effect | no evidence of these effects | some LDH release | greatest enhancement | not significantly toxic | –
4 | GGEQNPIYWARYADWLFTTPLLLLDLALLVDADEGTCG (H-GGEQNPIYWARYADWLFTTPLLLLDLALLVDADEGTCG-NH2) [pHLIP(WT)] | – | – | – | – | – | effect of pHLIP alone on MDA-MB-231 cell viability [4]: no effect; effect of free peptide on cell viability (Figure S1A) ([3]; 10 μM free peptide, pH 7.4 and low pH, 72 h recovery, n = 9-12): neither pHLIP(WT) nor the tetrapeptides has any significant harmful effects; plasma membrane integrity (trypan blue uptake) (MDA-MB-231 cells [5]): neither pHLIP(WT) nor the tetrapeptides has any significant harmful effects
5 | I: GGEQNPIYWARYADWLFTTPLLLLDLALLVDADEGTCG-NH2 / II: CKAAK-NH2 (disulfide I:37-II:1) [pHLIP-KAAK] | – | – | – | – | – | overall cell proliferation inhibition relative to the other 4-amino acid conjugates ([3]; low pH, 1.25–10 μM, 72 h recovery): lower than pHLIP-KGGK
